Data published in patent US20250099420A1, “SMALL MOLECULE MODULATORS OF GPR139 COMPLEX” (University of Florida Research Foundation, Incorporated, priority 2022, published 2025).
Where two headings read alike, the source gives them in different places.

Key:
parental HEK cells = test: HEK parental Agonist Counterscreen Assay (non-transfected cells); assay type: cell-based; details: for Lipophilic Efficiency (logD) / Lipophilic Efficiency (logP) / Averaged Max % Response (±St. Dev.): HEK Agonist Activity section; for Averaged Max % Response (±St. Dev.): activity relative to known control; for EC50: HEK Agonist Activity section of Table 4 (parental HEK counterscreen)
Source text: The high control for the agonist counterscreen was Forskolin not acetylcholine.

GPR139 = target: T1, GPR139 (Homo sapiens, UniProt Q6DWJ6); test: GPR139 Agonist titration / agonist counterscreen assay (calcium detection, HEK-GPR139 cells); assay type: cell-based; parameters: expressed in transfected cells; host or cells: HEK Aequorin cells, Maxcyte transient transfection; details: GPR139 Agonist Activity; for Averaged Max % Response (±St. Dev.): activity relative to known control; for EC50: read-out: EC50
T1 sequence (Q6DWJ6 1-353): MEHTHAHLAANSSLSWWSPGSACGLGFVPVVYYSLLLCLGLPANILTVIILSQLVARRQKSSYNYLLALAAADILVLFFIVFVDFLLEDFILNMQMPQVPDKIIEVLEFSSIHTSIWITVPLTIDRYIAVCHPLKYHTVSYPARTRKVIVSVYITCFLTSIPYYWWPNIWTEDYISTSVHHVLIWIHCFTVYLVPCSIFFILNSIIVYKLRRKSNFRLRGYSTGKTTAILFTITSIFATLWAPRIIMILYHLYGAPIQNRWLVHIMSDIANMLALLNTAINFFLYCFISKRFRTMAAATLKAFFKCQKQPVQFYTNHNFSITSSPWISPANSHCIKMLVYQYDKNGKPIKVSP
Protocol: GPR activity was assessed using a calcium detection assay. […] Negative control samples were treated with DMSO. […] Intracellular calcium was measured using Calcium 5.

[1] = values printed in E-notation without unit

## Cc1ccc(CC2CCC(CC(=O)CC3CCCCCCC3)C2=O)cc1 (stereo not drawn) [SR-01000151470]
Parental HEK cells
  Lipophilic Efficiency (logD): 1.44
  Lipophilic Efficiency (logP): 1.44
  Averaged Max % Response (±St. Dev.): −9.17 ± 11.99%
Parental HEK cells; Homo sapiens, HEK293
  EC50: > 14100 nM
GPR139
  Efficiency Ligand: 0.31
  Hill Slope: 1.14
  Lipophilic Efficiency (logD): 2.62
  Lipophilic Efficiency (logP): 2.62
  Averaged Max % Response (±St. Dev.): 78.27 ± 16.46%

## O=C(CCc1nc2cccnc2n1Cc1cccs1)NCc1ccc2c(c1)OCO2 [SR-01000151666]
Parental HEK cells
  Lipophilic Efficiency (logD): 1.87
  Lipophilic Efficiency (logP): 1.87
  Averaged Max % Response (±St. Dev.): −3.95 ± 11.76%
Parental HEK cells; Homo sapiens, HEK293
  EC50: > 14100 nM
GPR139
  Averaged Max % Response (±St. Dev.): 107.14 ± 25.50%
GPR139; based on logD
  Lipophilic Efficiency (logD): 4.24
GPR139; based on logP
  Lipophilic Efficiency (logP): 4.24
GPR139; fitted dose-response curve
  Hill Slope: 0.74
GPR139; ligand efficiency
  Efficiency Ligand: 0.34
GPR139; [1]
  EC50: 60.3 nM

## O=C(Cn1nc(Cc2ccncc2)c2ccccc2c1=O)N1CCCc2ccccc21 [SR-01000151917]
Parental HEK cells
  Lipophilic Efficiency (logD): 1.92
  Lipophilic Efficiency (logP): 1.92
  Averaged Max % Response (±St. Dev.): 10.70 ± 4.71%
Parental HEK cells; Homo sapiens, HEK293
  EC50: > 14100 nM
GPR139
  Efficiency Ligand: 0.28
  Hill Slope: 1.73
  Lipophilic Efficiency (logD): 3.34
  Lipophilic Efficiency (logP): 3.33
  Averaged Max % Response (±St. Dev.): 110.81 ± 5.15%
GPR139; HEK-GPR139 cells
  EC50: 537 nM

## O=C(Cn1ncc2c1-c1ccccc1OC2)Nc1ccc(Cl)cc1 [SR-01000152099]
Parental HEK cells
  Lipophilic Efficiency (logD): 2.23
  Lipophilic Efficiency (logP): 2.23
  Averaged Max % Response (±St. Dev.): 29.06 ± 12.18%
Parental HEK cells; Homo sapiens, HEK293
  EC50: > 14100 nM
GPR139
  Efficiency Ligand: 0.36
  Hill Slope: 0.62
  Lipophilic Efficiency (logD): 3.61
  Lipophilic Efficiency (logP): 3.61
  Averaged Max % Response (±St. Dev.): 112.22 ± 29.96%
GPR139; HEK-GPR139 cells
  EC50: 589 nM

## Cc1cccnc1NC(=O)Cn1ncc2c1-c1ccccc1OC2 [SR-01000152365]
Parental HEK cells
  Lipophilic Efficiency (logD): 2.49
  Lipophilic Efficiency (logP): 2.49
  EC50: > 14100 nM
  Averaged Max % Response (±St. Dev.): 18.44 ± 8.07%
GPR139
  Averaged Max % Response (±St. Dev.): 96.01 ± 17.34%
GPR139; based on logD
  Lipophilic Efficiency (logD): 4.77
GPR139; based on logP
  Lipophilic Efficiency (logP): 4.77
GPR139; fitted dose-response curve
  Hill Slope: 0.99
GPR139; ligand efficiency
  Efficiency Ligand: 0.42
GPR139; [1]
  EC50: 73 nM

## Cc1ccc2c(c1)-c1c(cnn1CC(=O)Nc1ccccn1)CO2 [SR-01000152429]
Parental HEK cells
  Lipophilic Efficiency (logD): 2.49
  Lipophilic Efficiency (logP): 2.49
  EC50: > 14100 nM
  Averaged Max % Response (±St. Dev.): −0.18 ± 21.55%
GPR139
  Averaged Max % Response (±St. Dev.): 109.51 ± 16.91%
GPR139; based on logD
  Lipophilic Efficiency (logD): 4.53
GPR139; based on logP
  Lipophilic Efficiency (logP): 4.53
GPR139; fitted dose-response curve
  Hill Slope: 1.07
GPR139; ligand efficiency
  Efficiency Ligand: 0.40
GPR139; [1]
  EC50: 128 nM

## CC(NC(=O)Cn1ncc2ccccc21)c1ccc2c(c1)OCCO2 (stereo not drawn) [SR-01000152760]
Parental HEK cells
  Lipophilic Efficiency (logD): 2.88
  Lipophilic Efficiency (logP): 2.88
  EC50: > 14100 nM
  Averaged Max % Response (±St. Dev.): 0.48 ± 8.40%
GPR139
  Averaged Max % Response (±St. Dev.): 85.23 ± 10.03%
GPR139; based on logD
  Lipophilic Efficiency (logD): 4.79
GPR139; based on logP
  Lipophilic Efficiency (logP): 4.79
GPR139; fitted dose-response curve
  Hill Slope: 0.63
GPR139; ligand efficiency
  Efficiency Ligand: 0.38
GPR139; [1]
  EC50: 174 nM
